# Data published in PMC8069289 (Molecules, 2021).
# Experiments:
# Drosophila melanogaster = experiment: Antigenotoxicity, wing spot test, combined treatment with hydrogen peroxide; assay type: in vivo; set-up: key to Total Spots, statistical diagnosis (Kastenbaum-Bowman test): * (positive); Δ (negative); β (inconclusive) vs. respective positive control
# Description: All inconclusive and positive results (p > 0.05) were analysed with the nonparametric U-test of Mann, Whitney and Wilcoxon (α = β = 0.05). Anter et al. described the antigenotoxicity method conducted in D. melanogaster. […] Single and twin spots per wing were also recorded and compared with the concurrent negative control as described before. Finally, the inhibition percentages (IP) for the combined treatments were calculated as described by Abraham: IP = [(genotoxin alone-combined treatment)/genotoxin alone] × 100.
# HL-60 cells [1] = experiment: Internucleosomal DNA fragmentation; assay type: cell-based, human; conditions: HL-60, 5 h, all tested concentrations
# Description: DNA fragmentation induction was determined as described by Anter et al. (2014). […] After treatment, genomic DNA was extracted using a commercial kit (Blood Genomic DNA Extraction Mini Spin Kit, Canvax Biotech, Córdoba, Spain). Then, DNA was incubated overnight with RNase at 37 °C and quantified in a spectrophotometer (Nanodrop® ND-1000, NanoDrop Technologies, Inc., Wilmington, DE, USA). Finally, 1200 ng DNA were electrophoresed in a 2% agarose gel for 120 min at 50 V, stained with ethidium bromide and visualized under UV light. The apoptosis process is recognised by the appearance of internucleosomal DNA fragments that are multiple of 200 base pairs.
# HL-60 cells [2] = experiment: Alkaline SCGE (comet assay), Tail Moment; assay type: cell-based, human; conditions: HL-60, 5 h
# Description: DNA integrity was assayed by SCGE as described by Olive and Banáth with minor modifications. […] After treatment, cells were washed twice and adjusted to 6.25 × 10^5 cells/mL in PBS. Electrophoresis gels were prepared pouring a 1:4 dilution (cells in liquid low-melting-point agarose at 40 °C, […], Sigma) into slides. Gels were covered with a coverslip and allowed to solidify at RT for 30 min. Once the slides solidified, the coverslips were carefully removed and slides were bathed in freshly prepared lysing solution (2.5 M NaCl, 100 mM Na-EDTA, 10 mM Tris, 250 mM NaOH, 10% DMSO and 1% Triton X-100; pH = 13) for 1 h at 4 °C. Thereafter, slides were equilibrated in alkaline electrophoresis buffer (300 mM NaOH and 1 mM Na-EDTA, pH = 13) for 20-30 min at 4 °C. Once equilibrated, the slides were underwent electrophoresis (12 V, 400 mA for 8 min) in the dark and were immediately neutralized in cold neutral solution (0.4 M Tris-HCl buffer, pH 7.5) for 10 min. […] Gels were stained with 7 μL propidium iodide and photographed in a DM2500 microscope (Leica Microsystems GmBH, Wetzlar, Germany) at 400× magnification. […] A one-way ANOVA and post-hoc Tukey's test with SPSS Statistics for Windows, Version 19.0 (2010, IBM Corporation, Armonk, NY, USA) was applied to determine the effect of the tested compounds on HL-60 cell DNA integrity from the analyses of Tail Moment (TM) data.
# [3] = system: Sat-α repetitive sequences of HL-60 cells; experiment: Methylation status by qMSP, Sat-α; assay type: cell-based, human; conditions: HL-60, 5 h
# Description: Then, DNA was extracted similarly to previously described DNA fragmentation assay. After that, the DNA was converted with bisulphite (EZ DNA Methylation-Gold™ Kit, Zymo Research, Irvine, CA, USA). Bisulphite-modified DNA was used for fluorescence-based real-time quantitative Methylation-Specific PCR (qMSP) using 5 µM of each forward and reverse primer (Isogen Life Science BV, Utrecht, The Netherlands), 2 µL of iTaq™ Universal SYBR® Green Supermix (Bio-Rad Laboratories, Inc., Hercules, CA, USA); it contains antibody-mediated hot-start iTaq DNA polymerase, dNTPs, MgCl2, SYBR® Green I dye, enhancers, stabilizers and a blend of passive reference dyes including ROX and fluorescein) and 25 ng of bisulphite converted genomic DNA.
# PCR conditions included initial denaturalisation at 95 °C for 3 min and amplification which consisted of 45 cycles at 95 °C for 10 s, 60 °C for 15 s and 72 °C for 15 s, taking picture at the end of each elongation cycle. After that, melting curve was determined increasing 0.5 °C each 0.05 s from 60 °C to 95 °C and taking pictures.
# QMSP was carried out in 48 well plates in MiniOpticon Real-Time PCR System (MJ Mini Personal Thermal Cycler, Bio-Rad) and were analysed by Bio-Rad CFX Manager 3.1 Software. The housekeeping Alu-C4 was used as a reference to correct for total DNA input. […] Each sample was analysed in triplicate. […]
# [4] = GLU 11 mM + 0.15 M H2O2, No. of spots in parentheses
# [5] = GLU 350 mM + 0.15 M H2O2, No. of spots in parentheses
# [6] = TAU 1 mM + 0.15 M H2O2, No. of spots in parentheses
# [7] = TAU 32 mM + 0.15 M H2O2, No. of spots in parentheses
compound,measurement,setting,value
"OC[C@H]1OC(O)[C@H](O)[C@@H](O)[C@@H]1O (stereo partly shown) [GLU, Glucose]",IP (%) inhibition percentage,Drosophila melanogaster; GLU 11 mM + 0.15 M H2O2,76.5%
same,Twin Spots m = 5,Drosophila melanogaster; GLU 11 mM + 0.15 M H2O2,0 clones per wing
same,Large Simple Spots (>2 Cells) m = 5,Drosophila melanogaster; [4],0.025 (1) clones per wing
same,Small Single Spots (1–2 Cells) m = 2,Drosophila melanogaster; [4],0.075 (3) clones per wing
same,Total Spots m = 2,Drosophila melanogaster; [4],0.1 (4) clones per wing
same,"Total Spots, statistical diagnosis (Kastenbaum-Bowman test)",Drosophila melanogaster; GLU 11 mM + 0.15 M H2O2 vs positive control,*
same,IP (%) inhibition percentage,Drosophila melanogaster; GLU 350 mM + 0.15 M H2O2,52.9%
same,Twin Spots m = 5,Drosophila melanogaster; GLU 350 mM + 0.15 M H2O2,0 clones per wing
same,Large Simple Spots (>2 Cells) m = 5,Drosophila melanogaster; [5],0.025 (1) clones per wing
same,Small Single Spots (1–2 Cells) m = 2,Drosophila melanogaster; [5],0.175 (7) clones per wing
same,Total Spots m = 2,Drosophila melanogaster; [5],0.2 (8) clones per wing
same,"Total Spots, statistical diagnosis (Kastenbaum-Bowman test)",Drosophila melanogaster; GLU 350 mM + 0.15 M H2O2 vs positive control,*
same,internucleosomal DNA fragmentation (ladder pattern),HL-60 cells [1],did not induce DNA fragmentation
same,TM versus concurrent control (DNA damage),HL-60 cells [2]; three lowest concentrations of the cytotoxicity assay,significantly induce TM values higher than the concurrent control
same,methylation status of satellite alpha sequences,[3]; 350 mM GLU,hypermethylated
"NCCS(=O)(=O)O [TAU, 2-aminoethanesulfonic acid]",IP (%) inhibition percentage,Drosophila melanogaster; TAU 1 mM + 0.15 M H2O2,70.6%
same,Large Simple Spots (>2 Cells) m = 5,Drosophila melanogaster; TAU 1 mM + 0.15 M H2O2,0 clones per wing
same,Twin Spots m = 5,Drosophila melanogaster; TAU 1 mM + 0.15 M H2O2,0 clones per wing
same,Small Single Spots (1–2 Cells) m = 2,Drosophila melanogaster; [6],0.125 (5) clones per wing
same,Total Spots m = 2,Drosophila melanogaster; [6],0.125 (5) clones per wing
same,"Total Spots, statistical diagnosis (Kastenbaum-Bowman test)",Drosophila melanogaster; TAU 1 mM + 0.15 M H2O2 vs positive control,*
same,IP (%) inhibition percentage,Drosophila melanogaster; TAU 32 mM + 0.15 M H2O2,38.1%
same,Twin Spots m = 5,Drosophila melanogaster; TAU 32 mM + 0.15 M H2O2,0 clones per wing
same,Large Simple Spots (>2 Cells) m = 5,Drosophila melanogaster; [7],0.026 (1) clones per wing
same,Small Single Spots (1–2 Cells) m = 2,Drosophila melanogaster; [7],0.236 (9) clones per wing
same,Total Spots m = 2,Drosophila melanogaster; [7],0.263 (10) clones per wing
same,"Total Spots, statistical diagnosis (Kastenbaum-Bowman test)",Drosophila melanogaster; TAU 32 mM + 0.15 M H2O2 vs positive control,*
same,internucleosomal DNA fragmentation (ladder pattern),HL-60 cells [1],did not induce DNA fragmentation
same,TM versus concurrent control (DNA damage),HL-60 cells [2]; 0.25 and 2 mM TAU,significantly induce TM values higher than the concurrent control
same,Tail Moment (TM) of representative photograph,HL-60 cells [2]; concentration not given,2.49
same,methylation status of satellite alpha sequences,[3]; both tested concentrations of TAU,significantly hypermethylated
